Values quoted from earlier work, collected in the PKSmart pharmacokinetics tables (Seal et al. 2025).

Test: not given per row; by the article one of three: Lombardo et al. 2013, J Clin Pharmacol 53:178, doi 10.1177/0091270012440282; 'New Drugs at FDA', novel drug approvals for 2021 and 2022 (the article's reference 43); Yap, Li, Chen 2006, J Mol Graph Model 24:383, doi 10.1016
Settings: human; for clearance / Vd / half-life: in vivo; for fraction unbound: plasma

| SMILES | clearance [mL/min/kg] | fraction unbound | Vd [L/kg] | half-life [h] |
| --- | --- | --- | --- | --- |
| CC(C)CC(NC(=O)C(Cc1ccccc1)NC(=O)C(N)Cc1ccccc1)C(=O)NC(CCCCN)C(=O)N1CCC(N)(C(=O)O)CC1 (configuration not stated) | 3.97 | 0.75 |  |  |
| Cc1ccccc1OC[C@@H](O)CNCCOc1ccc(C(N)=O)cc1 | 10.8 |  |  |  |
| O=C(O)CN(CCN(CC(=O)O)CC(=O)O)CC(=O)O | 1.09 |  |  |  |
| C[C@]1(Cn2ccnn2)C(C(=O)O)N2C(=O)C[C@@H]2S1(=O)=O (some centres not stated) | 2.91 |  |  |  |
| Nc1nc(=O)c2c([nH]1)N[C@@H]1O[C@@H]3COP(=O)(O)O[C@@H]3C(O)(O)[C@@H]1N2 | 3.02 |  | 0.3 | 1.45 |
| CC(NC(C)(C)C)C(=O)c1cccc(Cl)c1 (configuration not stated) | 36 |  |  |  |
| NC(C(=O)NC1C(=O)N2C(C(=O)O)=C(Cl)CS[C@H]12)c1ccccc1 (some centres not stated) | 6.1 |  |  |  |
| CS(=O)(=O)c1ccc(Oc2cc(F)cc(C#N)c2)c2c1[C@H](O)[C@H](F)[C@@H]2F | 2.03 | 0.55 | 2.17 | 14 |
| CC1(C)C(=CC=C2CCCC(C=CC3=[N+](CCCCS(=O)(=O)O)c4ccc(S(=O)(=O)[O-])cc4C3(C)C)=C2Oc2ccc(CC(NC(=O)c3ccc(NCc4cnc5nc(N)[nH]c(=O)c5n4)cc3)C(=O)O)cc2)N(CCCCS(=O)(=O)O)c2ccc(S(=O)(=O)O)cc21 (configuration not stated) |  |  | 0.29 | 0.44 |
| O=C(O)c1ccccc1Nc1cccc(C(F)(F)F)c1 | 1.43 |  |  |  |
| C[C@H](CC(c1ccccc1)c1ccccc1)NC(C)(C)C | 0.95 |  |  |  |
| COC(=O)Nc1c(N)nc(-c2nn(Cc3ccccc3F)c3ncc(F)cc23)nc1N | 0.44 | 0.02 | 0.73 | 30 |
| COc1cccc2c1C(=O)c1c(O)c3c(c(O)c1C2=O)C[C@](O)(C(=O)CO)C[C@@H]3O[C@@H]1C[C@H](N)[C@@H](O)[C@H](C)O1 | 16.5 |  |  |  |
| C[C@H]1CN(C2CCC(C#N)(c3ccc(F)cc3)CC2)CC[C@]1(C(=O)O)c1ccccc1 (some centres not stated) | 0.43 |  |  |  |
| CN1c2c(oc(=O)n(-c3ccccn3)c2=O)-c2ccccc2S1(=O)=O | 0.05 |  |  |  |
| CCC1=C(C)CN(C(=O)NCCc2ccc(S(=O)(=O)NC(=O)NC3CCC(C)CC3)cc2)C1=O (configuration not stated) | 0.76 |  |  |  |
| CSc1ccc(OCc2ncc([N+](=O)[O-])n2C)cc1 |  | 0.02 |  |  |
| Nc1ccn(C[C@H](CO)OCP(=O)(O)O)c(=O)n1 | 2.3 |  |  |  |
| NC(=O)c1ccc2c(c1O)[C@]13CCN(CC4CC4)[C@H](C2)[C@]1(O)CCC(=O)C3 | 11.1 | 0.72 |  | 9 |

| SMILES | clearance [mL/min/kg] | fraction unbound | Vd [L/kg] | half-life [h] |
| --- | --- | --- | --- | --- |
| CCOC(=O)C(CCc1ccccc1)NC(C)C(=O)N1Cc2ccccc2CC1C(=O)O (configuration not stated) | 26.4 |  |  |  |
| O=C(NC(C(=O)NC1C(=O)N2C(C(=O)O)C(=C[n+]3ccc(CCS(=O)(=O)[O-])cc3)CSC12)c1ccccc1)c1nc[nH]c1C(=O)O (configuration not stated) | 1.7 |  | 0.21 |  |
| OC[C@H]1O[C@@H](n2cnc3c2N=CNC[C@@H]3O)CC1O (some centres not stated) | 1.68 |  |  |  |
| CC(C)[N+](C)(CCOC(=O)C1c2ccccc2Oc2ccccc21)C(C)C | 18.9 |  |  |  |
| COc1ccc(OC)c(Cc2cnc3nc(N)nc(N)c3c2C)c1 | 2.21 |  |  |  |
| CCCN[C@@H]1CCc2nc(N)sc2C1 | 8.2 |  |  |  |
| CCN1CC(C(=O)O)C(=O)c2ccc(-c3ccncc3)cc21 (configuration not stated) | 2 |  |  |  |
| COCc1c(-c2ccc(F)cc2)c(=CC[C@H](O)C[C@H](O)CC(=O)O)c(C(C)C)nc1=C(C)C | 2.98 |  |  |  |
| C[C@H]1CN(c2cc3c(cc2F)c(=O)c(C(=O)O)cn3-c2ccc(F)cc2F)CCN1 | 3.19 |  |  |  |
| Fc1ccc([C@H]2CCNC[C@@H]2COc2ccc3c(c2)OCO3)cc1 | 6.8 |  |  |  |
| COc1c(N2CCN[C@@H](C)C2)c(F)cc2c(=O)c(C(=O)O)cn(C3CC3)c12 | 2.85 |  |  |  |
| OCC(O)CO | 3.55 |  |  |  |
| CN1CCN(/C=C2/N=C3CN=C(c4ccccc4Cl)c4cc([N+](=O)[O-])ccc4N3C2=O)CC1 | 5.09 |  |  |  |
| Nc1nc(NC2CC2)c2ncn([C@@H]3C=C[C@H](CO)C3)c2n1 | 13.1 |  |  |  |
| CCOc1ncc(C)c2c1[C@H](c1ccc(C#N)cc1OC)C(C(N)=O)C(C)=N2 (some centres not stated) | 6.94 | 0.08 | 0.88 | 2.5 |
| CC(=O)O[C@H](CC(=O)[O-])C[N+](C)(C)C | 1.45 |  |  |  |
| O=C(CCC(C(=O)O)N1CCN(C(CCC(=O)NCC(O)CO)C(=O)O)Cc2cccc(n2)CN(C(CCC(=O)NCC(O)CO)C(=O)O)CC1)NCC(O)CO (configuration not stated) | 1.67 | 0.98 | 0.22 | 1.5 |
| CCCC[C@](C)(O)C/C=C\[C@H]1C(CCCCCCC(=O)OC)C(=O)C[C@@H]1O (some centres not stated) | 240 |  |  |  |
| O=C(c1ccc(NS(=O)(=O)c2cccc3cccnc23)cc1)N1CCN(CC2CC2)CC1 | 3.47 | 0.02 | 0.71 | 4 |

| SMILES | clearance [mL/min/kg] | fraction unbound | Vd [L/kg] | half-life [h] |
| --- | --- | --- | --- | --- |
| Cc1cn([C@@H]2C=C[C@H](CO)O2)c(=O)[nH]c1=O | 8.24 |  |  |  |
| C=CC(=O)N1CC[C@H](n2nc(C#Cc3cc(OC)cc(OC)c3)c3c(N)ncnc32)C1 | 5.56 | 0.05 | 1.1 | 2.9 |
| CN1c2ccccc2[C@H](NCCCCCCC(=O)O)c2ccc(Cl)cc2S1(=O)=O | 3.43 |  |  |  |
| CN1C(=O)NC(=O)[C@@](C)(C2=CCCCC2)C1=O | 3.6 |  |  |  |
| CCCC(NC(C)C(=O)N1C(C(=O)O)C[C@@H]2CCCC[C@H]21)C(=O)O (some centres not stated) | 10.9 |  |  |  |
| C=CC(=O)N1CCN(c2nc(=O)n(-c3c(C)ccnc3C(C)C)c3nc(-c4c(O)cccc4F)c(F)cc23)[C@@H](C)C1 | 7.28 | 0.11 | 3.52 |  |
| CON=C(C(=O)NC1C(=O)N2C(C(=O)[O-])=C(C[N+]34CCC(C(N)=O)(CC3)CC4)CS[C@H]12)c1nsc(N)n1 (some centres not stated) | 2.15 |  |  |  |
| CCN1CCC[C@@H]1CNC(=O)c1cc(S(=O)(=O)CC)ccc1OC | 5.71 |  |  |  |
| C[C@@](Cc1ccc(O)c(O)c1)(NN)C(=O)O | 18 |  |  |  |
| COP(=O)(OC)[C@H](O)C(Cl)(Cl)Cl | 5.67 |  |  |  |
| C=c1c(N)c(O)c2c(c1O)N1C[C@@H]3N[C@@H]3[C@@]1(OC)C=2COC(N)=O | 8.23 |  |  |  |
| COc1ccc(NC(=O)\C=C(C)/C=C/C=C(C)\C=C\C2=C(C)CCCC2(C)C)cc1 | 98.9 |  |  |  |
| C[C@@H](O)C1C(=O)N2C(C(=O)O)=C(S[C@H]3CNC(C(=O)Nc4cccc(C(=O)O)c4)C3)[C@H](C)[C@@H]12 (some centres not stated) | 0.4 |  |  |  |
| COc1cc2c(cc1OC)CN(C(=O)C(C)NC(CCc1ccccc1)C(=O)O)C(C(=O)O)C2 (configuration not stated) | 3.31 |  |  |  |
| Cc1nc2ccc(CN(C)c3ccc(C(=O)NC(CCC(=O)O)C(=O)O)s3)cc2c(=O)[nH]1 (configuration not stated) | 0.59 |  |  |  |
| COc1cc2nccc(Oc3ccc(NC(=O)Nc4cc(C)on4)c(Cl)c3)c2cc1OC | 0.21 | 0.01 | 2.05 | 111 |
| CC12CCC(=O)C=C1C1CC1C1C2CCC2(C)C1C1CC1C21CCC(=O)O1 (configuration not stated) |  | 0.04 |  | 34 |
| CON=C(C(=O)NC1C(=O)N2C(C(=O)O)=CCS[C@H]12)c1csc(=N)[nH]1 (some centres not stated) | 1.79 |  |  |  |
